Test results reported in patent US7320990B2, “Crystalline form of a biphenyl compound” (Theravance, Inc., priority 2004, dated 2008).

Columns and labels:
[1] = system: His-induced bronchoconstriction; assay: Bronchoprotection in guinea pig model of histamine-induced bronchoconstriction; type: in vivo; conditions: inhalation, 1.5 hours post-dose
Procedure: (§1) Groups of 6 male guinea pigs (Duncan-Hartley (HsdPoc:DH) Harlan, Madison, Wis.) weighing between 250 and 350 g were individually identified by cage cards. Throughout the study, animals were allowed access to food and water ad libitum.
(§2) Forty-five minutes prior to the start of the pulmonary evaluation, each guinea pig was anesthetized with an intramuscular injection of ketamine (43.75 mg/kg), xylazine (3.50 mg/kg) and acepromazine (1.05 mg/kg). After the surgical site was shaved and cleaned with 70% alcohol, a 2-3 cm midline incision of the ventral aspect of the neck was made. […] The depth of anesthesia was monitored and adjusted if the animal responds to pinching of its paw or if the respiration rate was greater than 100 breaths/minute. […]
(§3) Once it was determined that baseline values were within the range of 0.3-0.9 mL/cm H2O for compliance and within the range of 0.1-0.199 cm H2O/mL per second for resistance, the pulmonary evaluation was initiated. […]
(§4) Starting this program initiated the experimental protocol and data collection. The changes in […] over time that occur within the plethysmograph with each breath were measured via a Buxco pressure transducer. By integrating this signal over time, a measurement of flow was calculated for each breath. […]

[2] = system: ACh-induced bronchoconstriction; assay: Bronchoprotection in guinea pig model of acetylcholine-induced bronchoconstriction; type: in vivo; conditions: inhalation, 1.5 hours post-dose
Procedure: as §1, §2, §3, §4

[3] = system: human β1, β2 or β3 adrenergic receptors; assay: Whole-cell cAMP Flashplate assay in CHO cell lines heterologously expressing human β adrenergic receptors; type: cell-based; conditions: CHO-K1 cells; receptor subtype not named in the result sentence; read-out: EC50 values (β receptor agonist potency, cAMP)
Procedure: Test compounds (10 mM in DMSO) were diluted into PBS containing 0.1% BSA in Beckman Biomek-2000 and tested at 11 different concentrations ranging from 100 μM to 1 pM.

[4] = Thermal analysis (DSC and TGA); type: physicochemical
Procedure: Differential scanning calorimetry (DSC) was performed using a TA Instruments Model Q-10 module with a Thermal Analyst controller. Data were collected and analyzed using TA Instruments Thermal Solutions software. A sample of about 1 mg was accurately weighed into an aluminum pan with lid. The sample was evaluated using a linear heating ramp of 5° C./min from ambient temperature to approximately 300° C. The DSC cell was purged with dry nitrogen during use.
Thermogravimetric analysis (TGA) was performed using a TA Instruments Model Q-50 module equipped with Hi-Resolution capability. Data were collected and analyzed using TA Instruments Thermal Solutions software. A sample weighing about 10 mg was placed onto a platinum pan and scanned with a high resolution-heating rate from ambient temperature to 300° C. The balance and furnace chambers were purged with nitrogen flows during use.

[5] = Dynamic moisture sorption assessment (DMS); type: physicochemical; conditions: for deliquescence: exposed to atmosphere moisture
Procedure: Approximately 10 mg of sample was used in the microbalance and the sample was run as received. The humidity was set at ambient condition on the day the analysis began. A typical DMSG analysis consisted of three scans: ambient to 2% relative humidity (RH), 2% RH to 90% RH, 90% RH to 5% RH. The scan rate was 5% RH/step. The mass was measured every two minutes using an equilibrium window of 5 points within 0.01% of the initial sample weight. The RH was changed to the next value (+/−5% RH) when the mass of the sample was stable to within 0.01% for 5 consecutive points.

[6] = listed as crystalline naphthalene-1,5-disulfonic acid salt of the compound of formula I
[7] = listed as naphthalene-1,5-disulfonic acid salt of the present invention

With O=C(Nc1ccccc1-c1ccccc1)OC1CCN(CCCCCCCCCNC[C@H](O)c2ccc(O)c3[nH]c(=O)ccc23)CC1 [compound of formula I, biphenyl-2-ylcarbamic acid 1-{9-[(R)-2-hydroxy-2-(8-hydroxy-2-oxo-1,2-dihydro-quinolin-5-yl)ethylamino]nonyl}piperidin-4-yl ester] the “ID50 for His-induced bronchoconstriction” value [1] was “less than 100 μg/mL”, the “ID50 for ACh-induced bronchoconstriction” value [2] was “less than 100 μg/mL” and the EC50 [3] was less than 10 nM.

With “Biphenyl-2-ylcarbamic Acid 1-{9-[(R)-2-Hydroxy-2-(8-Hydroxy-2-oxo-1,2-dihydroquinolin-5-yl)ethylamino]nonyl}piperidin-4-yl Ester Naphthalene-1,5-disulfonic Acid Salt [Example 3]” the “weight loss (TGA)” value ([4]; from room temperature to 150° C.) was “about 1.8%”, the “temperature below which no thermal decomposition occurs (DSC)” value ([4]; heating ramp of 5° C./min) was no less than 200 °C and the moisture sorption/desorption profile [5] was “reversible”. The deliquescence [5, 6] was “not to be deliquescent”, the deliquescence [5, 7] was “not deliquescent” and the weight gain ([5]; humidity range from 2% RH up to 90% RH) was 3.7%. For the same molecule, the weight gain ([5]; humidity range of 40% RH to 75% RH) was “less than 1.5%”, the “hygroscopicity (weight gain when exposed to atmospheric moisture)” value [5, 6] was “less than 5%” and the “hygroscopicity (weight gain when exposed to atmospheric moisture)” value [5, 7] was less than 5%.
